Bounds are passed on as bounds.

26 molecules from BindingDB's records for doi:10.7270/Q2BG2MFK (Nmmlsc, 2010) can be followed below.

The target in one experiment is T1, Regulator of G-protein signaling 19 (Homo sapiens, UniProt P49795).
T1 sequence (P49795 whole entry): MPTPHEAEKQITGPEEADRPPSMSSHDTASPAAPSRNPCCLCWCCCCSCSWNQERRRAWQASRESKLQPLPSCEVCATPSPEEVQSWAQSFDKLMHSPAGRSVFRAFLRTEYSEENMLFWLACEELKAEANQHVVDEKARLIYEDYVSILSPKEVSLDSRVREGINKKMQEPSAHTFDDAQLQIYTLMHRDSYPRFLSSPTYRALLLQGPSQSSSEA
Briefly: RGS19-Galphao binding modulators, analog potency, SAR follow-up, biochemical, SAR compounds, multiplexed bead flow cytometry (AID 2311).
Conditions: not given
On the technique in general: Flow cytometry measures light scatter and fluorescence of single cells or particles in a stream.
Usually EC50 stands for the concentration that produces a half-maximal response. Read a high EC50 as a need for much substance. `CC(NC(=O)c1sc2cc([N+](=O)[O-])ccc2c1Cl)C(C)(C)C` (stereo unspecified) [3-chloranyl-N-(3,3-dimethylbutan-2-yl)-6-nitro-1-benzothiophene-2-carboxamide]: the EC50 is greater than 30000 nM.

`O=c1c2ccccc2sn1-c1ccccc1` [2-phenyl-1,2-benzothiazol-3-one] showed an EC50 greater than 30000 nM.

With `COC(=O)CCC(=O)Nc1sc(C)c(C)c1C(N)=O` [4-[(3-carbamoyl-4,5-dimethyl-2-thienyl)amino]-4-keto-butyric acid methyl ester], the EC50 was greater than 30000 nM.

`Cc1cccc(N2CCN(C(=O)COc3nsc4nc(C)cc(C)c34)CC2C)c1` (stereo unspecified) returned an EC50 of 590 nM.

Take `Cc1[nH]n(-c2ccccc2)c(=S)c1C=NCCCN=Cc1c(C)[nH]n(-c2ccccc2)c1=S`: it took 56 nM to reach a half-maximal effect (EC50).

`Cc1cc(Cl)ccc1/N=c1/ssnc1Cl` [MLS000539990] gave an EC50 of 115 nM.

For the molecule `O=C(COc1ccccc1C(=O)NN=Cc1ccc(O)c(O)c1)NN=Cc1ccc(O)c(O)c1` [N''-[(Z)-(3-hydroxy-4-oxo-1-cyclohexa-2,5-dienylidene)methyl]-2-[2-[[(Z)-(3-hydroxy-4-oxo-1-cyclohexa-2,5-dienylidene)methyl]hydrazo]-2-oxoethoxy]benzohydrazide], the EC50 was greater than 30000 nM.

`O=C(Cc1csc(N2CCOCC2)n1)NN=Cc1ccc(O)c(O)c1O` [SMR000369439]: the EC50 turned out to be 794 nM.

`CCN(CC)S(=O)(=O)c1cccc(C(=O)NN=Cc2ccc(O)c(O)c2O)c1` gave an EC50 greater than 30000 nM.

`O=C(NCCCN1CCOCC1)c1sc2cc([N+](=O)[O-])ccc2c1Cl` [3-chloranyl-N-(3-morpholin-4-ylpropyl)-6-nitro-1-benzothiophene-2-carboxamide] gave an EC50 of 488 nM.

The molecule `Nc1c(C(=O)NCC2CCCO2)sc2nc3c(c(-c4ccco4)c12)CC/C3=C/c1ccco1` (stereo unspecified) [UNM-0000305796] gave an EC50 greater than 30000 nM.

In turn, `CN1CCN(C2=C(Cl)C(=O)C(c3cnc(N4CCCCC4)s3)=C(Cl)C2=O)CC1` came in with an EC50 of 27 nM.

The molecule `CCN(CC)S(=O)(=O)c1cccc(-c2n[nH]c(=S)n2N=Cc2ccc(C(=O)OC)cc2)c1` [4-[(E)-[3-[3-(diethylsulfamoyl)phenyl]-5-thioxo-1H-1,2,4-triazol-4-yl]iminomethyl]benzoic acid methyl ester] showed an EC50 greater than 30000 nM.

`CC(=O)OCCCNc1cc(Sc2nc3ccccc3s2)c2nonc2c1[N+](=O)[O-]` [MLS000521052]: the EC50 was 16 nM.

For the molecule `CC1(C)OC(=O)C(=Cc2ccc(-c3ccc(S(N)(=O)=O)cc3)o2)C(=O)O1` [SMR000273939], the midpoint of the response, the EC50, lay at 245 nM.

Regarding `CN=c1scc(C)n1N=Cc1ccc(O)c(O)c1O` [(4E)-2,3-dihydroxy-4-[[(4-methyl-2-methylimino-1,3-thiazol-3-yl)amino]methylidene]cyclohexa-2,5-dien-1-one], the EC50 was 209 nM.

`CCC(=O)NC(c1ccc(C)cc1)c1cc([N+](=O)[O-])c2cccnc2c1O` (stereo unspecified) [MLS000553854] registered an EC50 of 1240 nM.

`CCOC(=O)c1sc(NC(=O)CSc2nnc(Cc3ccccc3)o2)c(C#N)c1C` [4-cyano-3-methyl-5-[[1-oxo-2-[[5-(phenylmethyl)-1,3,4-oxadiazol-2-yl]thio]ethyl]amino]-2-thiophenecarboxylic acid ethyl ester] came in with an EC50 of 155 nM.

With `COc1ccc(C2=CC(=O)C=CC2=O)cc1` [MLS001029846], the EC50 is 169 nM.

For `O=C1C(Cl)=C(N2CCCCC2)C(=O)C(Cl)=C1c1cnc(N2CCCCC2)s1` [MLS000550549], it took 82 nM to reach a half-maximal effect (EC50).

The molecule `Cc1cccc(N2CCN(C(=O)Cn3sc4nc(C)cc(C)c4c3=O)CC2C)c1` (stereo unspecified) [2-[2-keto-2-[3-methyl-4-(m-tolyl)piperazino]ethyl]-4,6-dimethyl-isothiazolo[5,4-b]pyridin-3-one] yielded a 50% effective concentration (EC50) of 100 nM.

In the case of `O=c1c2ccccc2sn1-c1ccc(S(=O)(=O)N2CCCC2)cc1` [2-(4-pyrrolidin-1-ylsulfonylphenyl)-1,2-benzothiazol-3-one], the EC50 is greater than 30000 nM.

For the molecule `CCN=c1scc(C)n1N=Cc1ccc(O)c(O)c1O`, the EC50 worked out at 378 nM.

Take `NS(=O)(=O)c1ccc(N=NCc2ccc(O)c(O)c2O)c([N+](=O)[O-])c1` [4-[[(E)-(2,3-dihydroxy-4-oxo-1-cyclohexa-2,5-dienylidene)methyl]hydrazo]-3-nitrobenzenesulfonamide]: the EC50 was found to be 109 nM.

Take `Cc1[nH]n(-c2ccccc2)c(=S)c1/C=N/c1cccc([N+](=O)[O-])c1` [(4E)-5-methyl-4-[(3-nitroanilino)methylene]-2-phenyl-2-pyrazoline-3-thione]: the EC50 is greater than 30000 nM.

The experiment is the same for the next values; noted with them: inactive by the depositor's call.
`CCOc1ccccc1-c1c2cc(O)c(=O)cc-2oc2cc(O)c(O)cc12` [MLS000578271] displayed an EC50 of 4690 nM.
